Values after ≈ are worked out from the molar mass of the structure shown. Read-outs that look alike come from different tables or passages of the source.
Tests used:
[1] = Kinetic solubility (37 °C/24 h); type: physicochemical
[2] = Hygroscopicity by DVS at 25 °C; type: physicochemical
Method: To understand the hygroscopicity of glutarate type A, DVS was employed to measure the mass change as a function of relative humidity at 25 °C (FIG. 14).
Dynamic vapour sorption was performed with ADVENTURE series DVS and Intrinsic-1 DVS at 25 °C under nitrogen blow. Approximately 30 milligrams of material were used. Anhydrate was analyzed using methods below: 0% RH to 95% RH to 0% RH at 10% RH (5% RH from 90% RH to 95% RH to 90% RH). After equilibrium at ambient conditions (50% RH), the hydrate sample was analyzed using method below: 1. Ambient relative humidity to 95% RH at 10% RH (5% from 90% RH to 95% RH). 2. 95% RH to 0% RH at 10% RH (5% from 95% RH to 90% RH). 3. 0% RH to 95% RH at 10% RH (5% RH from 90% RH to 95% RH).
The moisture sorption profile was generated at 25 °C using a DVS moisture balance flow system (Model Advantage 1.0) with the following conditions: sample size approximately 10 mg, drying 25 °C for 60 minutes, adsorption range 0% to 95% RH, desorption range 95% to 0% RH, and step interval 5%. The equilibrium criterion was <0.01% weight change in 5 minutes for a maximum of 120 minutes.

[3] = Physicochemical stability (2-week, open conditions); conditions: for remaining at 336 h: 2-week; for remaining at 336 h / remaining at 240 h: read-out: Purity; for remaining at 240 h: 10-day
From the text: SHIMADZU LC-20AD was employed to detect the chemical purity HPLC method for purity test

[4] = Drying stability (vacuum, RT/50/70 °C); type: physicochemical
[5] = Approximate solubility of starting material at RT; type: physicochemical; conditions: RT (~27 °C)
Method: The solubility of starting material (E0007-A01-02) was estimated at RT (~27 °C).
Specifically, approximate 2 mg of solid was added into an HPLC glass vial. The solvents below were then added stepwise ([…]) into the vials until the solids were dissolved or a total volume of 1.0 mL was reached.
The solubility data were used to guide the solvent selection in polymorph screening. Approximate solubility of starting material (E0007-A01-02) at RT: […]

[6] = Polymorph form conversion / solid-state stability (XRPD, VT-XRPD); type: physicochemical
Method: To confirm stability and suitability of Ulodesine hemi-glutarate Type A, a polymorph screening was conducted to search for other potential crystal forms and identify the most suitable form to confirm the previous findings.
Using glutarate Type A as starting material, a polymorph screening was conducted under 100 conditions through methods of anti-solvent addition, solid vapor diffusion, liquid vapor diffusion, slow evaporation, polymer-induced crystallization, temperature cycling, slurry at room temperature (RT)/50 °C and slow cooling.
X-ray powder diffraction data at variable temperature was collected at on a Malvern Panalytical Empyrean diffractometer. Flat a few milligrams of sample on a sample holder and compact it by a glass slide with protection of a piece of weighting paper. An X-ray generator of 1800 W was employed at 45 kV and 40 mA and was equipped with an X-ray tube of Cu (Kα), with the Kα2/Kα1 intensity ratio of 0.50 (1.54439 Å/1.5406 Å). Data were collected from 3° to […] (2θ) at a step size of 0.026° (2θ) with time per step of 49.7 s.
Glutarate Type B (E0007-A01-06) was only observed by heating glutarate Type A to 130 °C using X-ray powder diffractometer at variable temperature mode (VT-XRPD).
Based on the characterization results, glutarate Type C was speculated as a channel hydrate (the water molecules of a channel hydrate lie next to other water molecules of adjoining unit cell, forming channels through the crystals).
Type C was re-prepared at 100 mg in triplicate via temperature cycling slurry in anisole/MeOH (1:2, v/v).

[7] = Physicochemical stability (2-week, open conditions)
[8] = test system: brown adipocytes; conditions: via cAMP/protein kinase A signalling pathway; cited from earlier work
[9] = test system: Diet induced obese mice; conditions: cited from earlier work
[10] = test system: DIO mouse model; assay: Example 2: low and intermittent dosing in DIO mouse model; type: in vivo, C57/BL6J mice; conditions: 2 mg/kg p.o., 3 days a week, vs control
From the text: The aim of this study is to determine the effect of a low and intermittent dosing regime of ulodesine hemi glutarate on the following parameters: weight gain, food intake, fasting blood glucose concentration, serum insulin, serum cholesterol, plasma liver enzymes aspartate aminotransferase (AST) and alanine transaminase (ALT), inguinal white adipose tissue (iWAT), BAT; inosine in plasma and NAD+ in whole blood, and expression of lipogenesis (fatty acid synthesis) markers in iWAT and thermogenic markers in BAT. The study will assess ulodesine hemi glutarate efficacy on the listed parameters in the DIO mouse model of obesity and metabolic dysfunction.
Method: C57/BL6J mice were fed obesogenic diet D12492 (60 kcal % fat) from age 6 weeks. Nineteen week old mice (approximately 50 g) were either treated with vehicle (control) or ulodesine hemi glutarate at 2 mg/kg for 3 days a week (days 1, 2 and 3), given orally, over a 28 day period. On day minus 2 and on day 28, animals were fasted for 6 hr (only food withdrawn) and blood was collected for both blood glucose and cholesterol. On day 28 plasma liver enzymes (AST and ALT) and insulin were determined and additional plasma and whole blood was frozen and used for inosine and NAD+ measurement. BAT and iWAT was collected at the end of the study, weighed and quantitative PCR was performed for the lipogenesis markers Stearoyl CoA desaturase 1 (SCD-1) and fatty acid synthetase (FAS) and the thermogenesis marker uncoupling protein 1 (UCP-1). Inosine and NAD+ levels in stored plasma and whole blood respectively were determined by LC/MS/MS.

[11] = test system: DIO mouse model; assay: Example 3: liver parameters in DIO mouse model; type: in vivo, C57/BL6J mice; conditions: 2 mg/kg p.o., 3 days a week, 8 weeks
From the text: The aim of this study is to determine the effect of low and intermittent dosing of ulodesine hemi glutarate on the liver parameters: liver weight, total cholesterol, triglycerides, AST and ALT. The study assessed ulodesine hemi glutarate efficacy on the listed parameters in the DIO mouse model of obesity and metabolic dysfunction.
Method: C57/BL6J mice were fed obesogenic diet D12492 (60 kcal % fat) from age 6 weeks. Eighteen weeks old mice (approximately 40 g) were either treated with vehicle (control) or ulodesine hemi glutarate at 2 mg/kg for 3 days a week (days 1, 2 and 3) given orally for 8 weeks. At the end of eight weeks, the liver was removed and the following parameters were assessed: total cholesterol, triglycerides, AST and ALT.

Compound: O=c1[nH]cnc2c(CN3C[C@H](CO)[C@@H](O)C3)c[nH]c12 [Glutarate Type A]
- solubility kinetic at 24 h ([1]; FaSSIF): > 16800 µg/mL
- solubility kinetic at 24 h ([1]; FeSSIF): > 16800 µg/mL
- solubility kinetic at 24 h ([1]; SGF): > 16800 µg/mL
- solubility kinetic at 24 h ([1]; water): > 16800 µg/mL
- water uptake ([2]; 25 °C/80% RH): 1.1%
- hygroscopicity ([2]; 25 °C/80% RH, in words): slightly hygroscopic
- water uptake ([2]; 25 °C/95% RH): 10.4%
- form change after DVS ([2]; XRPD after DVS): no form change
- remaining at 336 h ([3]; 25 °C/60% RH): 97.8%
- remaining at 336 h ([3]; 40 °C/75% RH): 97.7%
- remaining at 336 h ([3]; 60 °C): 97.3%
- remaining at 240 h ([3]; 25 °C/60% RH): 97.7%
- remaining at 240 h ([3]; 40 °C/75% RH): 97.8%
- remaining at 240 h ([3]; 60 °C): 97.6%
- Initial purity ([3]; initial): 97.9 area %
- change in crystallinity on vacuum drying ([4]; 70 °C): slight decrease
- change in crystallinity on vacuum drying ([4]; overnight, 50 °C): no change in crystallinity
- change in crystallinity on vacuum drying ([4]; overnight, RT): no change in crystallinity
- solubility ([5]; H2O): > 36000 µg/mL
- solubility ([5]; organic solvent or mixture, 1,4-Dioxane): < 2000 µg/mL
- solubility ([5]; organic solvent or mixture, 2-MeTHF): < 1900 µg/mL
- solubility ([5]; organic solvent or mixture, ACN): < 1900 µg/mL
- solubility ([5]; organic solvent or mixture, Acetone/H2O (9:1)): < 1900 µg/mL
- solubility ([5]; organic solvent or mixture, Acetone): < 2100 µg/mL
- solubility ([5]; organic solvent or mixture, CPME): < 1900 µg/mL
- solubility ([5]; organic solvent or mixture, DCM/MeOH (1:1)): < 1900 µg/mL
- solubility ([5]; organic solvent or mixture, DCM): < 1800 µg/mL
- solubility ([5]; organic solvent or mixture, DMAc): 2000 to 6500 µg/mL (≈ 7.57 to 24.6 mM)
- solubility ([5]; organic solvent or mixture, DMF): 2300 to 7600 µg/mL (≈ 8.7 to 28.8 mM)
- solubility ([5]; organic solvent or mixture, DMSO): > 39600 µg/mL
- solubility ([5]; organic solvent or mixture, EtOAc): < 2100 µg/mL
- solubility ([5]; organic solvent or mixture, EtOH/H2O (2:1)): 22600 to 45200 µg/mL (≈ 85.5 to 171 mM)
- solubility ([5]; organic solvent or mixture, EtOH/H2O (4:1)): 2100 to 6900 µg/mL (≈ 7.95 to 26.1 mM)
- solubility ([5]; organic solvent or mixture, EtOH/H2O (9:1)): < 2000 µg/mL
- solubility ([5]; organic solvent or mixture, EtOH): < 2100 µg/mL
- solubility ([5]; organic solvent or mixture, IPA): < 1800 µg/mL
- solubility ([5]; organic solvent or mixture, IPAc): < 2000 µg/mL
- solubility ([5]; organic solvent or mixture, MEK): < 1900 µg/mL
- solubility ([5]; organic solvent or mixture, MIBK): < 1800 µg/mL
- solubility ([5]; organic solvent or mixture, MTBE): < 2000 µg/mL
- solubility ([5]; organic solvent or mixture, MeOH): 1900 to 6500 µg/mL (≈ 7.19 to 24.6 mM)
- solubility ([5]; organic solvent or mixture, NMP): 1900 to 6300 µg/mL (≈ 7.19 to 23.8 mM)
- solubility ([5]; organic solvent or mixture, THF/H2O (9:1)): < 2000 µg/mL
- solubility ([5]; organic solvent or mixture, THF): < 2000 µg/mL
- solubility ([5]; organic solvent or mixture, Toluene): < 1900 µg/mL
- solubility ([5]; organic solvent or mixture, n-Heptane): < 2000 µg/mL
- solid-state properties and stability ([6]; polymorph screening overall): good solid-state properties and stability
- Form change ([7]; 2-week, 25 °C/60% RH): No
- Form change ([7]; 2-week, 40 °C/75% RH): No
- Form change ([7]; 2-week, 60 °C): No
- Form change ([7]; 10-day, 25 °C/60% RH): No
- Form change ([7]; 10-day, 40 °C/75% RH): No
- Form change ([7]; 10-day, 60 °C): No

Compound: O=c1[nH]cnc2c(CN3C[C@H](CO)[C@@H](O)C3)c[nH]c12 [Glutarate Type B]
- form conversion on cooling back to RT ([6]; after heating to 130 °C, cooled to RT): quickly converted to glutarate Type A
- solid form stability ([6]; ambient condition): meta-stable form at ambient condition

Compound: O=c1[nH]cnc2c(CN3C[C@H](CO)[C@@H](O)C3)c[nH]c12 [Glutarate Type C]
- form change after heating to 110 °C ([6]; 110 °C): no form change
- form change after drying ([6]; RT overnight): no form change
- Form change after heating ([6]; after heating): No
- stability compared with glutarate Type A ([6]; drying under ambient condition): lower stability compared with glutarate Type A
- form conversion after drying under ambient condition ([6]; wet cakes from screening, ~25 °C/30% RT): (partially) converted to glutarate Type A
- form conversion after drying under ambient condition ([6]; wet cakes, ~6 h (~20 °C/32% RH)): converted to glutarate Type A

Compound: OC[C@H]1O[C@@H](n2cnc3c(O)ncnc32)[C@H](O)[C@@H]1O [inosine]
- energy expenditure in brown adipocytes [8]: stimulates energy expenditure
- weight ([9]; diet induced obese mice, daily for 26 days, vs vehicle): significant reduction in weight
- BAT dependent energy expenditure ([9]; mice): increased BAT dependent energy expenditure
- browning of white adipose tissue ([9]; mice): induced browning of white adipose tissue

Compound: O=c1[nH]cnc2c(CN3C[C@H](CO)[C@@H](O)C3)c[nH]c12 [ulodesine]
- blood glucose ([10]; 28 days): decreases
- iWAT/Body weight % ([10]; 28 days): significant decrease
- plasma cholesterol ([10]; 28 days): decreases
- insulin levels ([10]; day 28): decreases
- plasma ALT ([10]; day 28): decreases
- plasma AST ([10]; day 28): decreases
- liver ALT [11]: decreases in triglycerides and ALT with treatment they did not achieve statistical significance
- liver AST [11]: significant decrease
- liver total cholesterol (TC) [11]: significant decrease
- liver triglycerides [11]: decreases in triglycerides and ALT with treatment they did not achieve statistical significance

From US20260364078A1, “PURINE NUCLEOSIDE PHOSPHORYLASE INHIBITORS FOR THE TREATMENT OF METABOLIC SYNDROME AND ASSOCIATED CONDITIONS” (METASHAPE PHARMA AG, priority 2022, published 2026)
